Measured values as given in PubChem BioAssay (NCI).
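Each compound was tested at five concentrations against cells in 96-well plates for 48 hours. Abbreviation: GI50, concentration required for 50% inhibition of growth. TGI marks complete inhibition of growth.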

Experiments:
Assay in all cases: NCI-60 cell line screen, 48 h
786-0 renal = test system: 786-0 renal
DU-145 prostate = test system: DU-145 prostate
EKVX NSCLC = test system: EKVX NSCLC
HOP-92 NSCLC = test system: HOP-92 NSCLC
HS 578T breast = test system: HS 578T breast
M14 melanoma = test system: M14 melanoma
MALME-3M melanoma = test system: MALME-3M melanoma
MDA-MB-231 breast = test system: MDA-MB-231 breast
OVCAR-5 ovarian = test system: OVCAR-5 ovarian
SNB-19 CNS = test system: SNB-19 CNS

Cn1cc(-c2ccc3nnc(C(F)(F)c4ccc5ncccc5c4)n3n2)cn1
GI50 (786-0 renal): 46 µM | TGI (786-0 renal): > 100 µM | GI50 (DU-145 prostate): 53.9 µM | TGI (DU-145 prostate): > 100 µM | GI50 (EKVX NSCLC): > 83.3 µM | TGI (EKVX NSCLC): > 100 µM | GI50 (HOP-92 NSCLC): 10.6 µM | TGI (HOP-92 NSCLC): > 88.9 µM | GI50 (HS 578T breast): 34.2 µM | TGI (HS 578T breast): > 100 µM | GI50 (M14 melanoma): > 100 µM | TGI (M14 melanoma): > 100 µM | GI50 (MALME-3M melanoma): 64.1 µM | TGI (MALME-3M melanoma): > 100 µM | GI50 (MDA-MB-231 breast): 34.2 µM | TGI (MDA-MB-231 breast): > 100 µM | GI50 (OVCAR-5 ovarian): 71.9 µM | TGI (OVCAR-5 ovarian): > 100 µM | GI50 (SNB-19 CNS): 53.4 µM | TGI (SNB-19 CNS): > 100 µM

COc1ccc(Nc2ncccc2C(=O)NCc2cn(Cc3cccc(Oc4ccccc4)c3)nn2)c(OC)c1
GI50 (786-0 renal): 3.92 µM | TGI (786-0 renal): > 100 µM | GI50 (DU-145 prostate): 3.52 µM | TGI (DU-145 prostate): > 81.5 µM | GI50 (EKVX NSCLC): 9.61 µM | TGI (EKVX NSCLC): > 100 µM | GI50 (HOP-92 NSCLC): 36.1 µM | TGI (HOP-92 NSCLC): > 100 µM | GI50 (HS 578T breast): 9.52 µM | TGI (HS 578T breast): > 100 µM | GI50 (M14 melanoma): 1.37 µM | TGI (M14 melanoma): > 100 µM | GI50 (MALME-3M melanoma): 6.21 µM | TGI (MALME-3M melanoma): > 100 µM | GI50 (MDA-MB-231 breast): 3.63 µM | TGI (MDA-MB-231 breast): > 28.1 µM | GI50 (OVCAR-5 ovarian): 6.72 µM | TGI (OVCAR-5 ovarian): > 100 µM | GI50 (SNB-19 CNS): 3.64 µM | TGI (SNB-19 CNS): > 100 µM

NCCCCCCCCCn1c2c(c3ccccc3c1=O)C(=O)c1ccccc1-2
GI50 (786-0 renal): 7.72 µM | TGI (786-0 renal): 15.9 µM | GI50 (DU-145 prostate): 5.98 µM | TGI (DU-145 prostate): 15.9 µM | GI50 (EKVX NSCLC): 9.16 µM | TGI (EKVX NSCLC): 17.3 µM | GI50 (HOP-92 NSCLC): 10.1 µM | TGI (HOP-92 NSCLC): 21.1 µM | GI50 (HS 578T breast): 10.3 µM | TGI (HS 578T breast): 21.9 µM | GI50 (M14 melanoma): 9.67 µM | TGI (M14 melanoma): 18 µM | GI50 (MALME-3M melanoma): 9.17 µM | TGI (MALME-3M melanoma): 21.8 µM | GI50 (MDA-MB-231 breast): 1.13 µM | TGI (MDA-MB-231 breast): 11.1 µM | GI50 (OVCAR-5 ovarian): 9.6 µM | TGI (OVCAR-5 ovarian): 19.5 µM | GI50 (SNB-19 CNS): 9.27 µM | TGI (SNB-19 CNS): 22.6 µM

Nc1nc(-c2ccc3ccccc3c2)cc(-c2cc(-c3ccc4ccccc4c3)nc(N)n2)n1
TGI (786-0 renal): > 100 µM | TGI (DU-145 prostate): > 100 µM | TGI (EKVX NSCLC): > 100 µM | TGI (HOP-92 NSCLC): > 100 µM | TGI (HS 578T breast): > 100 µM | TGI (M14 melanoma): > 100 µM | TGI (MALME-3M melanoma): > 100 µM | TGI (MDA-MB-231 breast): > 100 µM | TGI (OVCAR-5 ovarian): > 100 µM | TGI (SNB-19 CNS): > 100 µM

COc1ccc2c(c1)C(=O)c1c-2c(OCCN2CCCCC2)nc2ccc(OC)cc12
GI50 (786-0 renal): 1.04 µM | TGI (786-0 renal): 2.59 µM | GI50 (DU-145 prostate): 0.519 µM | TGI (DU-145 prostate): 2.19 µM | GI50 (EKVX NSCLC): 1 µM | TGI (EKVX NSCLC): 4.12 µM | GI50 (HOP-92 NSCLC): 2.41 µM | TGI (HOP-92 NSCLC): 19.7 µM | GI50 (HS 578T breast): 4.5 µM | TGI (HS 578T breast): 22.8 µM | GI50 (M14 melanoma): 0.904 µM | TGI (M14 melanoma): 6.87 µM | GI50 (MALME-3M melanoma): 1.27 µM | TGI (MALME-3M melanoma): 4.47 µM | GI50 (MDA-MB-231 breast): 2.71 µM | TGI (MDA-MB-231 breast): 15.3 µM | GI50 (OVCAR-5 ovarian): 3.74 µM | TGI (OVCAR-5 ovarian): 19.7 µM | GI50 (SNB-19 CNS): 0.66 µM | TGI (SNB-19 CNS): 15.1 µM

C=C(C)C1CCC2(C(=O)O)CCC3(C)C(CCC4C5(C)CCC(O)C(C)(C)C5CCC43C)C12 (stereo not given)
TGI (786-0 renal): 25.2 µM | TGI (DU-145 prostate): 27.1 µM | TGI (EKVX NSCLC): 44.9 µM | TGI (HOP-92 NSCLC): 12.4 µM | TGI (HS 578T breast): 55.7 µM | TGI (M14 melanoma): 27.7 µM | TGI (MALME-3M melanoma): 27.9 µM | TGI (MDA-MB-231 breast): 10.7 µM | TGI (OVCAR-5 ovarian): 26.1 µM | TGI (SNB-19 CNS): 39.7 µM

Clc1ccc(Nc2ncnc3c2sc2ncccc23)c(Cl)c1
GI50 (786-0 renal): < 0.01 µM | TGI (786-0 renal): > 100 µM | GI50 (DU-145 prostate): 0.0276 µM | TGI (DU-145 prostate): > 100 µM | GI50 (EKVX NSCLC): 0.0826 µM | TGI (EKVX NSCLC): > 100 µM | GI50 (HOP-92 NSCLC): 0.0632 µM | TGI (HOP-92 NSCLC): 21.6 µM | GI50 (HS 578T breast): > 100 µM | TGI (HS 578T breast): > 100 µM | GI50 (M14 melanoma): < 0.01 µM | TGI (M14 melanoma): 0.038 µM | GI50 (MALME-3M melanoma): 6.67 µM | TGI (MALME-3M melanoma): > 100 µM | GI50 (MDA-MB-231 breast): > 100 µM | TGI (MDA-MB-231 breast): > 100 µM | GI50 (OVCAR-5 ovarian): 0.0576 µM | TGI (OVCAR-5 ovarian): > 100 µM | GI50 (SNB-19 CNS): < 0.0121 µM | TGI (SNB-19 CNS): > 100 µM

COC(=O)[C@H](C)[C@@H]1CC[C@](C)(CCC2=C(C)CCCC2(C)C)OO1
TGI (786-0 renal): > 25 µM | TGI (DU-145 prostate): > 25 µM | TGI (EKVX NSCLC): > 25 µM | TGI (HOP-92 NSCLC): > 25 µM | TGI (HS 578T breast): > 25 µM | TGI (M14 melanoma): > 25 µM | TGI (MALME-3M melanoma): > 25 µM | TGI (MDA-MB-231 breast): > 25 µM | TGI (OVCAR-5 ovarian): > 25 µM | TGI (SNB-19 CNS): > 25 µM

Nc1nc(Cl)nc2c1ncn2C1OC(CO)C(O)C1O (stereo not given)
GI50 (786-0 renal): 2.57 µM | TGI (786-0 renal): > 73.4 µM | GI50 (DU-145 prostate): 6.76 µM | TGI (DU-145 prostate): > 100 µM | GI50 (EKVX NSCLC): > 96.8 µM | TGI (EKVX NSCLC): > 100 µM | GI50 (HOP-92 NSCLC): 6.27 µM | TGI (HOP-92 NSCLC): > 100 µM | GI50 (HS 578T breast): > 100 µM | TGI (HS 578T breast): > 100 µM | GI50 (M14 melanoma): 0.999 µM | TGI (M14 melanoma): 4.2 µM | GI50 (MALME-3M melanoma): > 100 µM | TGI (MALME-3M melanoma): > 100 µM | GI50 (MDA-MB-231 breast): > 100 µM | TGI (MDA-MB-231 breast): > 100 µM | GI50 (OVCAR-5 ovarian): 86.9 µM | TGI (OVCAR-5 ovarian): > 100 µM | GI50 (SNB-19 CNS): 2.72 µM | TGI (SNB-19 CNS): > 100 µM

CCN(CC)CC(O)c1cc(-c2ccc(Cl)cc2)nc2cc(Cl)ccc12 (stereo not given)
GI50 (786-0 renal): 1.9 µM | TGI (786-0 renal): 3.41 µM | GI50 (DU-145 prostate): 2.27 µM | TGI (DU-145 prostate): 5.04 µM | GI50 (EKVX NSCLC): 1.76 µM | TGI (EKVX NSCLC): 8.04 µM | GI50 (HOP-92 NSCLC): 1.83 µM | TGI (HOP-92 NSCLC): 7.38 µM | GI50 (HS 578T breast): 2.51 µM | TGI (HS 578T breast): 7.32 µM | GI50 (M14 melanoma): 1.83 µM | TGI (M14 melanoma): 3.44 µM | GI50 (MALME-3M melanoma): 1.78 µM | TGI (MALME-3M melanoma): 3.62 µM | GI50 (MDA-MB-231 breast): 1.4 µM | TGI (MDA-MB-231 breast): 3.9 µM | GI50 (OVCAR-5 ovarian): 2.11 µM | TGI (OVCAR-5 ovarian): 5.58 µM | GI50 (SNB-19 CNS): 4.34 µM | TGI (SNB-19 CNS): 16 µM

CC(C)(N)C(=O)N[C@@H]1C(=O)N2[C@@H]1SC(C)(C)[C@@H]2C(=O)O
TGI (786-0 renal): > 100 µM | TGI (DU-145 prostate): > 100 µM | TGI (EKVX NSCLC): > 100 µM | TGI (HOP-92 NSCLC): > 100 µM | TGI (HS 578T breast): > 100 µM | TGI (M14 melanoma): > 100 µM | TGI (MALME-3M melanoma): > 100 µM | TGI (MDA-MB-231 breast): > 100 µM | TGI (OVCAR-5 ovarian): > 100 µM | TGI (SNB-19 CNS): > 100 µM

C=C(C)[C@@H]1CC[C@]2(C(=O)N3CCN(C)CC3)CC[C@]3(C)[C@H](CC[C@@H]4[C@@]5(C)CC[C@H](O)C(C)(C)[C@@H]5CC[C@]43C)[C@@H]12
GI50 (786-0 renal): 1.49 µM | TGI (786-0 renal): 3.17 µM | GI50 (DU-145 prostate): 1.85 µM | TGI (DU-145 prostate): 3.4 µM | GI50 (EKVX NSCLC): 1.92 µM | TGI (EKVX NSCLC): 4.12 µM | GI50 (HOP-92 NSCLC): 1.69 µM | TGI (HOP-92 NSCLC): 3.42 µM | GI50 (HS 578T breast): 1.94 µM | TGI (HS 578T breast): 4.68 µM | GI50 (M14 melanoma): 1.89 µM | TGI (M14 melanoma): 3.76 µM | GI50 (MALME-3M melanoma): 1.92 µM | TGI (MALME-3M melanoma): 3.83 µM | GI50 (MDA-MB-231 breast): 1.88 µM | TGI (MDA-MB-231 breast): 3.57 µM | GI50 (OVCAR-5 ovarian): 1.75 µM | TGI (OVCAR-5 ovarian): 3.28 µM | GI50 (SNB-19 CNS): 1.83 µM | TGI (SNB-19 CNS): 3.92 µM

CCC1OC(=O)CC(O)C(C)C(OC2OC(C)CC(N(C)C)C2O)C(CC=O)CC(C)C(=O)/C=C/C2(C)OC2C1C (stereo not given)
TGI (786-0 renal): 40.9 µM | TGI (DU-145 prostate): 61.2 µM | TGI (EKVX NSCLC): 44.8 µM | TGI (HOP-92 NSCLC): 64.6 µM | TGI (HS 578T breast): > 100 µM | TGI (M14 melanoma): > 100 µM | TGI (MALME-3M melanoma): 64.9 µM | TGI (MDA-MB-231 breast): 53.8 µM | TGI (OVCAR-5 ovarian): > 100 µM | TGI (SNB-19 CNS): 30.6 µM
